Experimental data from patent US6849612B2, “Oligonucleotide modulation of cell adhesion” (ISIS Pharmaceuticals, Inc., priority 1993, dated 2005).
pIC50: −log10 of the molar value. Strand notation (5' to 3'): a small letter for the sugar, then the base; units joined by * are phosphorothioate-linked, units joined directly phosphodiester-linked; [ ] holds rarer units or linkages, { } end groups; capitals alone tell only the bases. d = 2'-deoxy (DNA)

How the values were obtained:
ICAM-1 = assay: ELISA screening for ICAM-1 expression in interleukin-1β-stimulated cells (HUVEC and A549); format: cell-based, human; conditions: interleukin-1β-stimulated cells, two cell lines (HUVEC, A549)
VCAM-1 = assay: ELISA of VCAM-1 expression in TNF-stimulated HUVEC; format: cell-based, human; conditions: for VCAM-1 EXPRESSION 30 nM oligo (VCAM-1 expression is given as % of control) / VCAM-1 EXPRESSION 50 nM oligo (VCAM-1 expression is given as % of control): TNF-α 16 hours; for pIC50: TNF-α, read-out: IC50 for inhibition of VCAM-1 expression (asterisk)
Description: Primary human umbilical vein endothelial (HUVEC) cells, passage 2 to 5, were plated in 96-well plates and allowed to reach confluence. Cells were washed three times with Opti-MEM (GIBCO, Grand Island N.Y.). Cells were treated with increasing concentrations of oligonucleotide diluted in Opti-MEM containing 10 μg/ml DOTMA solution (Bethesda Research Labs, Bethesda, Md.) for 4 hours at 370C. The medium was removed and replaced with EGM-UV (Clonetics, San Diego Calif.) plus oligonucleotide. Tumor necrosis factor α was added to the medium (2.5 ng/ml) and the cells were incubated an additional 4 hours at 37° C.
ELAM-1 expression was determined by ELISA. Cells were gently washed three times with Dulbecco's phosphate-buffered saline (D-PBS) prewarmed to 37° C. Cells were fixed with 95% ethanol at 4° C. for 20 minutes, washed three times with D-PBS and blocked with 2% BSA in D-PBS. Cells were incubated with ELAM-1 monoclonal antibody BBA-1 (R&D Systems, Minneapolis Minn.) diluted to 0.5 μg/ml in D-PBS containing 2% BSA for 1 hour at 37° C. Cells were washed three times with D-PBS and the bound ELAM-1 antibody detected with biotinylated goat anti-mouse secondary antibody followed by β-galactosidase-conjugated streptavidin as described in Example 1.
Inhibition of VCAM-1 expression by fifteen antisense phosphorothioate oligonucleotides was determined using the ELISA assay approximately as described in Example 12, except that cells were stimulated with TNF-àfor 16 hours and VCAM-1 expression was detected by a VCAM-1 specific monoclonal antibody (R & D Systems, Minneapolis, Minn.) used at 0.5 μg/ml.

| Substance | inhibition of ICAM-1 expression, relative activity in words (ICAM-1) | VCAM-1 EXPRESSION 30 nM oligo (VCAM-1 expression is given as % of control) (VCAM-1) | VCAM-1 EXPRESSION 50 nM oligo (VCAM-1 expression is given as % of control) (VCAM-1) | pIC50 (VCAM-1) |
| --- | --- | --- | --- | --- |
| ISIS 1573: P=S, human ICAM-1 3′-Untranslated (2849-2866), SEQ ID NO 4, GAGGCTGAGGTGGGAGGA (antisense dG*dA*dG*dG*dC*dT*dG*dA*dG*dG*dT*dG*dG*dG*dA*dG*dG*dA) | not as active as ISIS-1939 |  |  |  |
| ISIS 1931: P=S, human ICAM-1 AUG Codon (55-74), SEQ ID NO 7, CATAGCGAGGCTGAGGTTGC (antisense dC*dA*dT*dA*dG*dC*dG*dA*dG*dG*dC*dT*dG*dA*dG*dG*dT*dT*dG*dC) | inhibit ICAM-1 expression |  |  |  |
| ISIS 1932: P=S, human ICAM-1 AUG Codon (72-91), SEQ ID NO 8, CGGGGGCTGCTGGGAGCCAT (antisense dC*dG*dG*dG*dG*dG*dC*dT*dG*dC*dT*dG*dG*dG*dA*dG*dC*dC*dA*dT) | slightly less active than ISIS 1570 and ISIS 1931 |  |  |  |
| ISIS 1933: P=S, human ICAM-1 Coding Region (111-130), SEQ ID NO 9 (antisense dA*dG*dA*dG*dC*dC*dC*dC*dG*dA*dG*dC*dA*dG*dG*dA*dC*dC*dA*dG) | weak activity |  |  |  |
| ISIS 1934: P=S, human ICAM-1 Coding Region (351-370), SEQ ID NO 10 (antisense dT*dG*dC*dC*dC*dA*dT*dC*dA*dG*dG*dG*dC*dA*dG*dT*dT*dT*dG*dA) | weak activity |  |  |  |
| ISIS 1935: P=S, human ICAM-1 Coding Region (889-908), SEQ ID NO 11 (antisense dG*dG*dT*dC*dA*dC*dA*dC*dT*dG*dA*dC*dT*dG*dA*dG*dG*dC*dC*dT) | weak activity |  |  |  |
| ISIS 1936: P=S, human ICAM-1 Coding Region (1459-1468), SEQ ID NO 12 (antisense dC*dT*dC*dG*dC*dG*dG*dG*dT*dG*dA*dC*dC*dT*dC*dC*dC*dC*dT*dT) | weak activity |  |  |  |
| ISIS 1937: P=S, human ICAM-1 Termination Codon (1651-1687), SEQ ID NO 13, TCAGGGAGGCGTGGCTTGTG (antisense dT*dC*dA*dG*dG*dG*dA*dG*dG*dC*dG*dT*dG*dG*dC*dT*dT*dG*dT*dG) | moderate activity |  |  |  |
| ISIS 1938: P=S (printed P = 5), human ICAM-1 Termination Codon (1668-1687), SEQ ID NO 14, CCTGTCCCGGGATAGGTTCA (antisense dC*dC*dT*dG*dT*dC*dC*dC*dG*dG*dG*dA*dT*dA*dG*dG*dT*dT*dC*dA) | moderate activity |  |  |  |
| ISIS 2307: P=S, human ICAM-1 3′-Untranslated (1976-1995), SEQ ID NO 26 (antisense dT*dG*dT*dC*dC*dT*dC*dA*dT*dG*dG*dT*dG*dG*dG*dG*dC*dT*dA*dT) | least active of the series |  |  |  |
| ISIS 2634: 2′-fluoro A, C & U; P=S, human ICAM-1 AUG-Codon (64-81), SEQ ID NO 1 (antisense TGGGAGCCATAGCGAGGC; DNA at G, 2'-fluoro at ACT, all phosphorothioate, T or U not given here) | less effective |  |  |  |
| ISIS 2637: 2′-fluoro A, C & U, human ICAM-1 3′-Untrans. (1952-1971), SEQ ID NO 15 (antisense CCCCCACCACTTCCCCTCTC; all 2'-fluoro, backbone and T or U not given here; further chemistry not fully specified) | did not exhibit this level of activity |  |  |  |
| ISIS 2973: 2′-O-methyl; P=S, human ICAM-1 3′-Untrans. (1952-1971), SEQ ID NO 15 (CCCCCACCACTTCCCCTCTC; listed as DNA, chemistry not fully specified) | did not exhibit this level of activity |  |  |  |
| ISIS 2974: 2′-O-methyl; P=S, human ICAM-1 AUG Codon (64-81), SEQ ID NO 1 (TGGGAGCCATAGCGAGGC; listed as DNA, chemistry not fully specified) | approximately threefold less effective than ISIS 1570 |  |  |  |
| ISIS 3801: phosphorothioate, human VCAM-1 3′-UTR 2872-2892, SEQ ID NO 50, AACCCAGTGCTCCCTTTGCT (DNA, all phosphorothioate, methylation of C not given here) |  | 36.5 % of control | 21.3 % of control | ≥ 7.30 |
| ISIS 3805: phosphorothioate, human VCAM-1 3′-UTR 2826-2845, SEQ ID NO 71, CCCGGCATCTTTACAAAACC (DNA, all phosphorothioate, methylation of C not given here) |  | 7.7 % of control | 44.9 % of control | ≥ 7.30 |
| ISIS 5847: phosphorothioate, human VCAM-1 3′-UTR 2957-2976, SEQ ID NO 72, AACATCTCCGTACCATGCCA (DNA, all phosphorothioate, methylation of C not given here) |  | 51.8 % of control | 24.6 % of control | ≥ 7.30 |
| ISIS 5862: phosphorothioate, human VCAM-1 5′-UTR 48-68, SEQ ID NO 62, CCTGTGTGTGCCTGGGAGGG (DNA, all phosphorothioate, methylation of C not given here) |  | 115.0 % of control | 3.5 % of control |  |
| ISIS 5863: phosphorothioate, human VCAM-1 CODING 745-764, SEQ ID NO 64, CAGCCTGCCTTACTGTGGGC (DNA, all phosphorothioate, methylation of C not given here) |  | 95.8 % of control | 66.7 % of control |  |
| ISIS 5874: phosphorothioate, human VCAM-1 CODING 1032-1052, SEQ ID NO 65, CTTGAACAATTAATTCCACCT (DNA, all phosphorothioate, methylation of C not given here) |  | 66.5 % of control | 35.3 % of control | ≥ 7.30 |
| ISIS 5875: phosphorothioate, human VCAM-1 CODING 2183-2203, SEQ ID NO 68, GTCTTTGTTGTTTTCTCTTCC (DNA, all phosphorothioate, methylation of C not given here) |  | 59.2 % of control | 34.8 % of control | ≥ 7.30 |
| ISIS 5876: phosphorothioate, human VCAM-1 CODING 2038-2057, SEQ ID NO 67, CTGTGTCTCCTGTCTCCGCT (DNA, all phosphorothioate, methylation of C not given here) |  | 43.5 % of control | 26.6 % of control | ≥ 7.30 |
| ISIS 5884: phosphorothioate, human VCAM-1 5′-UTR 1-19, SEQ ID NO 60, CGATGCAGATACCGCGGAGT (antisense dC*dG*dA*dT*dG*dC*dA*dG*dA*dT*dA*dC*dC*dG*dC*dG*dG*dA*dG*dT) |  | 79.2 % of control | 37.2 % of control | ≥ 7.30 |
| ISIS 5885: phosphorothioate, human VCAM-1 E/I 1633-1649 + intron, SEQ ID NO 66, TTACCATTGACATAAAGTGTT (DNA, all phosphorothioate, methylation of C not given here) |  | 84.4 % of control | 52.4 % of control |  |
